Experimental data: patent publication US11532406B2, “High specific activity preparation of F-18 tetrafluoroborate” (Mayo Foundation for Medical Education and Research, priority 2016, dated 2022)
Entries after “also recorded” stand apart in the source; their conditions may differ.

How the values were obtained:
[1] = system: hNIS-expressing C6 glioma xenograft; experiment: Dynamic PET imaging in hNIS-expressing C6 glioma xenografted athymic mice; assay type: in vivo
Procedure: Studies with mice were performed under approval of the Mayo Clinic Institutional Animal Care and Use Committee. Dynamic PET imaging was performed in hNIS-expressing C6 glioma xenografted athymic mice following retro-orbital injection ˜1.1 MBq Na ^18F-TFB at different specific activities (10-0.001 mg TFB/Kg mouse) to assess hNIS activity with ^18F-TFB. In this xenograft model, one flank has hNIS-negative C6 glioma tumor xenograft and the other flank had hNIS-expressing C6 glioma xenograft.
PET scans were acquired for 60 min followed by an X-ray scan using the GENISYS4 PET imaging system (Sofie Biosciences, CA). The images from 40 hNIS-expressing C6 glioma xenografted mice were analyzed for Standardized Uptake Value (SUV) in tumor, stomach, and thyroid using AMIDE image processing software (20). The SUV in tumor was normalized with SUV in stomach to account for difference in ^18F-TFB bioavailability in different animals due to competing uptake in normal organs like thyroid, salivary glands and stomach.

[2] = PET/CT imaging of ^18F-TFB in healthy participants (pharmacokinetics, biodistribution); assay type: in vivo, human
Excerpt: Approval of the study was obtained from the Mayo Clinic Institutional Review Board and all participants provided informed consent. Four male (36±14 y) and four female (35±8 y) healthy volunteers were enrolled in the study. Participants were excluded that had previous diagnosis of cancer or clinically significant cardiovascular, renal, pulmonary, metabolic, and endocrine (thyroid) diseases. Participants were not required to fast prior to the imaging study but instructed to remain well-hydrated.
The imaging protocol is illustrated in FIG. 13. After voiding of the bladder, participants were positioned in a GE 690XT PET/CT scanner (GE HealthCare, Waukesha, Wis.) in a supine position with the heart in the center of the axial field of view. Intravenous catheters were placed in both arms for radiotracer injection and blood sampling. Computed tomography scans of the thorax were initially acquired in the preparation for a dynamic PET data acquisition over the heart for the first 45 min following commencement of radiotracer administration. ^18F-TFB (333-407 MBq) was administered over 1 minute into one of the catheters. The frame sequence for initial dynamic PET acquisition was 15×4, 8×15, 4×30, and 8×300 seconds. Following the dynamic heart scan, the participants were allowed a break from the scanner, during which time voided their bladders. Two additional PET/CT scans, from the vertex of the skull to mid-thigh, were performed at 2 hours and 3.5 hours respectively. The last PET/CT scan was completed ˜4 h post-injection.
All PET scans images were reconstructed using 3D OSEM and time-of-flight reconstruction. Volumes of interest (VOI's) of organs were drawn using PMOD software (Ver. 3.5). Standardized Uptake Values (SUVs) normalized to body weight were then calculated for each VOI. Time-activity curves (TACs) were evaluated from the initial dynamic scan over the heart for left-ventricular blood pool, lung and liver regions.

[3] = Safety measurements for ^18F-TFB administration (vital signs, clinical laboratory tests); assay type: in vivo, human
Procedure: Vital signs (heart rate, systolic and diastolic blood pressures, respiratory rate, and temperature) were measured prior to ^18F-TFB administration and at 45 and 240 min post-injection. Venous blood samples were taken prior to ^18F-TFB administration and at ˜240 min post-injection for a panel of clinical laboratory tests to evaluate the safety of the radiotracer administration.

[4] = Measurements in venous blood and urine samples, HPLC metabolite analysis; assay type: in vivo, human; details: all urine samples, approximately 50, 160, 250 min
[5] = C6-glioma xenograft mouse model, PET
[6] = representative participant, post-administration

For `F[B-](F)(F)[18F]` [^18F-TFB, ^18F-tetrafluoroborate], the “uptake by hNIS-expressing tumor versus specific activity” value ([1]; >13 MBq/μmol compared to 3 MBq/μmol) was “higher at high specific activity”, the “uptake in hNIS-negative tumors” value [1, 5] was “No uptake” and the “uptake in thyroid, stomach, bladder and hNIS-expressing tumors” value [1, 5] was “Robust uptake”. For the same molecule, the “stomach uptake versus specific activity” value ([1]; mouse, in vivo) was “independent of specific activity”, the “stomach uptake over 60 min” value ([1]; over 60 min) was “linear increase” and the “uptake kinetic in thyroid and hNIS-expressing tumor” value ([1]; rapid uptake over first 10 min, slower until 30 min) was “bi-phasic kinetic”. The “PET/CT-derived distribution (SUV), Bone” value ([2]; females, 2 h post-injection) was 0.74 ± 0.20 SUV, the “PET/CT-derived distribution (SUV), Brain” value ([2]; females, 2 h post-injection) was 0.42 ± 0.15 SUV and the “PET/CT-derived distribution (SUV), Breast” value ([2]; females, 2 h post-injection) was 2.8 ± 0.4 SUV. For the same molecule, the “PET/CT-derived distribution (SUV), Gallbladder” value ([2]; females, 2 h post-injection) was 3.7 ± 1.0 SUV, the “PET/CT-derived distribution (SUV), Intestines” value ([2]; females, 2 h post-injection) was 5.0 ± 2.7 SUV and the “PET/CT-derived distribution (SUV), Kidney” value ([2]; females, 2 h post-injection) was 5.6 ± 0.7 SUV. The “PET/CT-derived distribution (SUV), Liver” value ([2]; females, 2 h post-injection) was 2.7 ± 0.5 SUV, the “PET/CT-derived distribution (SUV), Lung” value ([2]; females, 2 h post-injection) was 1.2 ± 0.4 SUV and the “PET/CT-derived distribution (SUV), Muscle” value ([2]; females, 2 h post-injection) was 0.65 ± 0.35 SUV. For the same molecule, the “PET/CT-derived distribution (SUV), Myocardium” value ([2]; females, 2 h post-injection) was 2.8 ± 0.5 SUV, the “PET/CT-derived distribution (SUV), Pancreas” value ([2]; females, 2 h post-injection) was 3.1 ± 1.7 SUV and the “PET/CT-derived distribution (SUV), Parotid” value ([2]; females, 2 h post-injection) was 20 ± 11 SUV. The “PET/CT-derived distribution (SUV), Spleen” value ([2]; females, 2 h post-injection) was 4.3 ± 1.0 SUV, the “PET/CT-derived distribution (SUV), Stomach” value ([2]; females, 2 h post-injection) was 72 ± 10 SUV and the “PET/CT-derived distribution (SUV), Thyroid” value ([2]; females, 2 h post-injection) was 50 ± 11 SUV. The “PET/CT-derived distribution (SUV), Bone” value ([2]; females, 3.5 h post-injection) was 1.3±0.9 SUV, the “PET/CT-derived distribution (SUV), Brain” value ([2]; females, 3.5 h post-injection) was 0.61 ± 0.34 SUV and the “PET/CT-derived distribution (SUV), Breast” value ([2]; females, 3.5 h post-injection) was 3.9 ± 1.4 SUV. For the same molecule, the “PET/CT-derived distribution (SUV), Gallbladder” value ([2]; females, 3.5 h post-injection) was 5.0 ± 1.6 SUV, the “PET/CT-derived distribution (SUV), Intestines” value ([2]; females, 3.5 h post-injection) was 6.0 ± 3.1 SUV and the “PET/CT-derived distribution (SUV), Kidney” value ([2]; females, 3.5 h post-injection) was 6.3 ± 2.4 SUV. For the same molecule, the “PET/CT-derived distribution (SUV), Liver” value ([2]; females, 3.5 h post-injection) was 3.5 ± 1.6 SUV, the “PET/CT-derived distribution (SUV), Lung” value ([2]; females, 3.5 h post-injection) was 1.5 ± 0.8 SUV and the “PET/CT-derived distribution (SUV), Muscle” value ([2]; females, 3.5 h post-injection) was 0.78 ± 0.54 SUV. For the same molecule, the “PET/CT-derived distribution (SUV), Myocardium” value ([2]; females, 3.5 h post-injection) was 3.8 ± 1.8 SUV, the “PET/CT-derived distribution (SUV), Pancreas” value ([2]; females, 3.5 h post-injection) was 3.0 ± 1.2 SUV and the “PET/CT-derived distribution (SUV), Parotid” value ([2]; females, 3.5 h post-injection) was 25 ± 15 SUV. The “PET/CT-derived distribution (SUV), Spleen” value ([2]; females, 3.5 h post-injection) was 5.5 ± 2.8 SUV, the “PET/CT-derived distribution (SUV), Stomach” value ([2]; females, 3.5 h post-injection) was 51 ± 18 SUV and the “PET/CT-derived distribution (SUV), Thyroid” value ([2]; females, 3.5 h post-injection) was 58 ± 12 SUV. For the same molecule, the “blood clearance of radioactivity (left-ventricular blood pool time-activity curve)” value ([2]; healthy participants) was “multiphasic; also recorded: multi-phasic”, the urinary clearance ([2]; healthy participants) was “prominent” and the “PET/CT-derived distribution (SUV), Bone” value ([2]; males, 2 h post-injection) was 0.80 ± 0.33 SUV. The “PET/CT-derived distribution (SUV), Brain” value ([2]; males, 2 h post-injection) was 0.39 ± 0.14 SUV, the “PET/CT-derived distribution (SUV), Gallbladder” value ([2]; males, 2 h post-injection) was 2.7 ± 1.5 SUV and the “PET/CT-derived distribution (SUV), Intestines” value ([2]; males, 2 h post-injection) was 2.9 ± 1.0 SUV. The “PET/CT-derived distribution (SUV), Kidney” value ([2]; males, 2 h post-injection) was 7.0 ± 2.5 SUV, the “PET/CT-derived distribution (SUV), Liver” value ([2]; males, 2 h post-injection) was 2.3 ± 1.0 SUV and the “PET/CT-derived distribution (SUV), Lung” value ([2]; males, 2 h post-injection) was 1.0 ± 0.4 SUV. The “PET/CT-derived distribution (SUV), Muscle” value ([2]; males, 2 h post-injection) was 0.71 ± 0.31 SUV, the “PET/CT-derived distribution (SUV), Myocardium” value ([2]; males, 2 h post-injection) was 3.2 ± 0.9 SUV and the “PET/CT-derived distribution (SUV), Pancreas” value ([2]; males, 2 h post-injection) was 3.4 ± 0.7 SUV. The “PET/CT-derived distribution (SUV), Parotid” value ([2]; males, 2 h post-injection) was 11 ± 9 SUV, the “PET/CT-derived distribution (SUV), Spleen” value ([2]; males, 2 h post-injection) was 4.1 ± 1.2 SUV and the “PET/CT-derived distribution (SUV), Stomach” value ([2]; males, 2 h post-injection) was 33 ± 15 SUV. For the same molecule, the “PET/CT-derived distribution (SUV), Thyroid” value ([2]; males, 2 h post-injection) was 55 ± 31 SUV, the “PET/CT-derived distribution (SUV), Bone” value ([2]; males, 3.5 h post-injection) was 1.4±0.5 SUV and the “PET/CT-derived distribution (SUV), Brain” value ([2]; males, 3.5 h post-injection) was 0.74 ± 0.26 SUV. The “PET/CT-derived distribution (SUV), Gallbladder” value ([2]; males, 3.5 h post-injection) was 4.2 ± 1.7 SUV, the “PET/CT-derived distribution (SUV), Intestines” value ([2]; males, 3.5 h post-injection) was 4.4 ± 1.0 SUV and the “PET/CT-derived distribution (SUV), Kidney” value ([2]; males, 3.5 h post-injection) was 11 ± 3 SUV. For the same molecule, the “PET/CT-derived distribution (SUV), Liver” value ([2]; males, 3.5 h post-injection) was 3.6 ± 1.2 SUV, the “PET/CT-derived distribution (SUV), Lung” value ([2]; males, 3.5 h post-injection) was 1.7 ± 0.6 SUV and the “PET/CT-derived distribution (SUV), Muscle” value ([2]; males, 3.5 h post-injection) was 0.96 ± 0.31 SUV. For the same molecule, the “PET/CT-derived distribution (SUV), Myocardium” value ([2]; males, 3.5 h post-injection) was 5.0 ± 0.9 SUV, the “PET/CT-derived distribution (SUV), Pancreas” value ([2]; males, 3.5 h post-injection) was 6.2 ± 2.1 SUV and the “PET/CT-derived distribution (SUV), Parotid” value ([2]; males, 3.5 h post-injection) was 16 ± 13 SUV. For the same molecule, the “PET/CT-derived distribution (SUV), Spleen” value ([2]; males, 3.5 h post-injection) was 6.3 ± 1.1 SUV, the “PET/CT-derived distribution (SUV), Stomach” value ([2]; males, 3.5 h post-injection) was 70 ± 32 SUV and the “PET/CT-derived distribution (SUV), Thyroid” value ([2]; males, 3.5 h post-injection) was 82 ± 42 SUV. The “time of peak radioactivity concentration, LVBP” value [2, 6] was roughly 1 min, the “time of peak radioactivity concentration, liver” value [2, 6] was roughly 2 min and the “time of peak radioactivity concentration, lung” value [2, 6] was roughly 1 min. For the same molecule, the “uptake in thyroid, stomach, salivary glands and kidney” value ([2]; whole-body PET/CT at 2 h post-injection) was “Robust uptake; also recorded: high uptakes”, the “clinical laboratory test values after administration” value ([3]; blood chemistries, electrolytes, liver and kidney functional tests, relative to baseline) was “No significant changes; also recorded: no significant findings” and the adverse effects ([3]; eight healthy participants) was “no adverse effects”. For the same molecule, the tolerability of administration ([3]; healthy participants, 333-407 MBq intravenous) was “well-tolerated; also recorded: well tolerated”, the “vital signs after administration” value ([3]; heart rate, blood pressures, respiratory rate, before vs after administration) was “No significant changes; also recorded: no significant findings” and the “radioactivity in the form of ^18F-TFB in urine” value [4] was greater than 97%.
